# The Kinase Knowledgebase extract (Sharma et al. 2016)
# Target: ROCK2 (human) (UniProt O75116)
# Experiment: Inhibition of ROCK2 Kinase Activity
# Chain of ROCK2 (human) (O75116 whole entry, looked up): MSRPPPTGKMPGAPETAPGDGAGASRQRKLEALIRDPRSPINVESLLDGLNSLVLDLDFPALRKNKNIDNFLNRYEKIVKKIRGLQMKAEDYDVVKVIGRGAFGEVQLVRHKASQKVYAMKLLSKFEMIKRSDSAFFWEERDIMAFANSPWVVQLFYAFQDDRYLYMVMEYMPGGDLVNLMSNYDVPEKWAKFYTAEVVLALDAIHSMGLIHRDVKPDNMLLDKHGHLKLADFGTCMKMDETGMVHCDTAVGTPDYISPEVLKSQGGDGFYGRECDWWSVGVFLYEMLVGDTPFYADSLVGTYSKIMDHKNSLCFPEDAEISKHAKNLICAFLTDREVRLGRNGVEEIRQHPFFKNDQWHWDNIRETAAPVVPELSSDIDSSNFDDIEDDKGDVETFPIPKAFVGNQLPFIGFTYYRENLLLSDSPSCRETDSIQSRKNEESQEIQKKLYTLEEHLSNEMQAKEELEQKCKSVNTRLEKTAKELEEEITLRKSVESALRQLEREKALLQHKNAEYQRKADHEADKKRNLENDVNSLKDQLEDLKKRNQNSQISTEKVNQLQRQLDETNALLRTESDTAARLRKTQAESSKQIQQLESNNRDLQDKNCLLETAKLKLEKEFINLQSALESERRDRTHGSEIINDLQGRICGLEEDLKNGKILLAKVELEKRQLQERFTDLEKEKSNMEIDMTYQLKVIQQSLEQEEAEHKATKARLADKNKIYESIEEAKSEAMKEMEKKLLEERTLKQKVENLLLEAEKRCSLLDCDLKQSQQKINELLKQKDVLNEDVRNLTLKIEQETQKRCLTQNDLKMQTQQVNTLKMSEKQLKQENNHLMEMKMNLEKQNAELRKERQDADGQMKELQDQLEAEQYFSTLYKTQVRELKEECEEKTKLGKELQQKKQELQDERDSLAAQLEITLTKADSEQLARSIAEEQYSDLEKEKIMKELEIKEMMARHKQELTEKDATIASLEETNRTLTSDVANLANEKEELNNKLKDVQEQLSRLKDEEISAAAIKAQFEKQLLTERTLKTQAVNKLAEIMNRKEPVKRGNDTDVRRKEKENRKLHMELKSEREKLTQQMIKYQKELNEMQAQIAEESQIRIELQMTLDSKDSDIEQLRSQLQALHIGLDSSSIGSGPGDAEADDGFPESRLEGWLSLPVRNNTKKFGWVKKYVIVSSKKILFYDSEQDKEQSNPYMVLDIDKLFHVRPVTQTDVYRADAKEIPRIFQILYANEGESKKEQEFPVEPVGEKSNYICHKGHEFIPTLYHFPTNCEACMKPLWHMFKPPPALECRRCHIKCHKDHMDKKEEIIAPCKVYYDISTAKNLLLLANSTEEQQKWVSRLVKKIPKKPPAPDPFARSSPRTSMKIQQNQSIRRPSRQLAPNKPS
row,IC50,SMILES
1,< 1 µM,CC(C)OC(=O)Nc1cc2cc[nH]c(=O)c2cc1Cl
2,< 1 µM,CC(NCCc1cccs1)C(=O)Nc1cc2cc[nH]c(=O)c2cc1Cl (stereo unspecified)
3,< 1 µM,O=c1[nH]ccc2cc(NC(=O)[C@H]3CC[C@H](C(=O)O)CC3)c(Cl)cc12
4,< 1 µM,O=C(Nc1cc2cc[nH]c(=O)c2cc1Cl)[C@H](O)c1ccccc1
5,< 1 µM,O=C(COc1ccc(Cl)cc1)Nc1ccc2c(=O)[nH]ccc2c1
6,< 1 µM,O=C(Nc1cc2cc[nH]c(=O)c2cc1Cl)c1cccc2c1CNCC2
7,< 1 µM,O=C(Nc1cc2cc[nH]c(=O)c2cc1Cl)c1ccc(Br)cc1Cl
8,< 1 µM,O=C(Nc1cc2cc[nH]c(=O)c2cc1Cl)[C@H]1CNC[C@@H]1c1ccccc1
9,< 1 µM,NCCC(=O)Nc1cc2cc[nH]c(=O)c2cc1Cl
10,< 1 µM,CN(C)C(C(=O)Nc1cc2nc[nH]c(=O)c2cc1Cl)c1ccccc1 (stereo unspecified)
11,< 1 µM,O=C(Nc1ccc2c(=O)[nH]cnc2c1)C1CCN(Cc2ccccc2)CC1
12,< 1 µM,O=C(CNCC1CC1)Nc1ccc2c(=O)[nH]cnc2c1
13,< 1 µM,Cc1cc(C(=O)Nc2ccc3c(=O)[nH]cnc3c2)n(C)n1
14,< 1 µM,NC(C(=O)Nc1cc2cc[nH]c(=O)c2cc1Cl)c1cccc(Cl)c1 (stereo unspecified)
15,< 1 µM,N[C@H]1C[C@@H](C(=O)Nc2cc3cc[nH]c(=O)c3cc2Cl)C1
16,< 1 µM,COC(C(=O)Nc1cc2cc[nH]c(=O)c2cc1Cl)(c1ccccc1)C(F)(F)F (stereo unspecified)
17,< 1 µM,O=C(CNCCc1cccs1)Nc1ccc2c(=O)[nH]cnc2c1
18,< 1 µM,O=C(Nc1cc2cc[nH]c(=O)c2cc1Cl)c1cccc(Cl)c1Cl
19,< 1 µM,O=C(Nc1cc2cc[nH]c(=O)c2cc1Cl)C1CCN(C2CCCCC2)CC1
20,< 1 µM,CS(=O)(=O)c1ccc(C(=O)Nc2cc3cc[nH]c(=O)c3cc2Cl)c(Cl)c1
21,< 1 µM,CC(C)(C)NCC(=O)Nc1cc2cc[nH]c(=O)c2cc1Cl
22,< 1 µM,O=C(Nc1cc2nc[nH]c(=O)c2cc1Cl)[C@H]1CNC[C@@H]1c1cccc(Br)c1
23,< 1 µM,O=C(Nc1cc2cc[nH]c(=O)c2cc1Cl)c1ccc(N2CCOCC2)cc1Cl
24,< 1 µM,C[C@](O)(C(=O)Nc1cc2cc[nH]c(=O)c2cc1Cl)c1ccccc1
25,< 1 µM,O=C(Nc1cc2cc[nH]c(=O)c2cc1Cl)[C@@H]1CCCNC1
26,< 1 µM,O=C(Nc1ccc2c(=O)[nH]ccc2c1)[C@H]1CCCNC1

row,IC50,SMILES
1,< 1 µM,CSCCC(=O)Nc1cc2cc[nH]c(=O)c2cc1Cl
2,< 1 µM,O=C(Nc1cc2cc[nH]c(=O)c2cc1Cl)C1CCN(Cc2ccccc2)CC1
3,< 1 µM,CCN(C)C(C(=O)Nc1cc2cc[nH]c(=O)c2cc1Cl)c1ccccc1 (stereo unspecified)
4,< 1 µM,CC(C)[C@@H](N)C(=O)Nc1ccc2c(=O)[nH]cnc2c1
5,< 1 µM,C[C@@H](Oc1ccccc1)C(=O)Nc1cc2cc[nH]c(=O)c2cc1Cl
6,< 1 µM,O=C(Nc1cc2cc[nH]c(=O)c2cc1Cl)[C@@H](O)C1CCCCC1
7,< 1 µM,O=C(Nc1ccc2c(=O)[nH]ccc2c1)c1cccs1
8,< 1 µM,CNC(C)(C)C(=O)Nc1ccc2c(=O)[nH]ccc2c1
9,< 1 µM,O=C(Nc1cc2cc[nH]c(=O)c2cc1Cl)[C@@H]1CCCCN1
10,< 1 µM,O=C(Nc1cc2cc[nH]c(=O)c2cc1Cl)C(c1ccccc1)N1CCC(O)CC1 (stereo unspecified)
11,< 1 µM,O=C(Nc1cc2cc[nH]c(=O)c2cc1Cl)C(NCC1CC1)c1ccccc1 (stereo unspecified)
12,< 1 µM,O=C(Nc1cc2cc[nH]c(=O)c2cc1Cl)C(NC1CCC1)c1ccccc1 (stereo unspecified)
13,< 1 µM,O=C(Nc1cc2cc[nH]c(=O)c2cc1Cl)c1ccc2c(c1)CCNC2
14,< 1 µM,O=C(CNCC1CCCCC1)Nc1ccc2c(=O)[nH]cnc2c1
15,< 1 µM,O=C(Nc1cc2cc[nH]c(=O)c2cc1Cl)c1cccc2c1CCNC2
16,< 1 µM,CC(NCC1CCCCC1)C(=O)Nc1cc2cc[nH]c(=O)c2cc1Cl (stereo unspecified)
17,< 1 µM,CC[C@@H](C)[C@H](N)C(=O)Nc1cc2cc[nH]c(=O)c2cc1Cl
18,< 1 µM,CS(=O)(=O)c1ccc(Cl)c(C(=O)Nc2cc3cc[nH]c(=O)c3cc2Cl)c1
19,< 1 µM,O=C(Nc1ccc2c(=O)[nH]ccc2c1)[C@@H]1CCCNC1
20,< 1 µM,O=C(Nc1cc2cc[nH]c(=O)c2cc1Cl)C1CNCC(c2ccccc2)C1 (stereo unspecified)
21,< 1 µM,COc1cc2c(=O)[nH]ccc2cc1NC(=O)[C@H](OC)c1ccccc1
22,< 1 µM,CC(=O)O[C@H]1CC[C@@H](C(=O)Nc2cc3cc[nH]c(=O)c3cc2Cl)CC1
23,< 1 µM,O=C(Nc1ccc2c(=O)[nH]ccc2c1)c1cc(Cl)sc1Cl
24,< 1 µM,N[C@H]1CC[C@@](C(=O)Nc2cc3cc[nH]c(=O)c3cc2Cl)(c2ccc(Cl)cc2)CC1
25,< 1 µM,CN1CCN(Cc2ccccc2C(=O)Nc2cc3cc[nH]c(=O)c3cc2Cl)CC1
26,< 1 µM,O=C(CNCc1ccccc1)Nc1ccc2c(=O)[nH]cnc2c1

row,IC50,SMILES
1,< 1 µM,O=C(Nc1cc2cc[nH]c(=O)c2cc1Cl)[C@H]1CCCNC1
2,< 1 µM,CC(C)(N)C(=O)Nc1ccc2c(=O)[nH]ccc2c1
3,< 1 µM,COC(=O)C[C@@H](C)C(=O)Nc1cc2cc[nH]c(=O)c2cc1Cl
4,< 1 µM,O=C(Nc1cc2cc[nH]c(=O)c2cc1Cl)C1CNCCN1 (stereo unspecified)
5,< 1 µM,O=C(Nc1cc2cc[nH]c(=O)c2cc1Cl)[C@H](O)C1CCCCC1
6,< 1 µM,O=C(Nc1cc2cc[nH]c(=O)c2cc1Cl)c1ccc2c(c1)CNCC2
7,< 1 µM,O=C(Nc1cc2cc[nH]c(=O)c2cc1Cl)c1cc([N+](=O)[O-])ccc1Cl
8,< 1 µM,COc1cc2c(=O)[nH]ccc2cc1NC(=O)[C@@H]1CCC[C@H](N)C1
9,< 1 µM,O=C(Nc1ccc2c(=O)[nH]cnc2c1)[C@H]1CCCN1
10,< 1 µM,O=C(Nc1cc2cc[nH]c(=O)c2cc1Cl)c1ccccc1CN1CCOCC1
11,< 1 µM,O=C(Nc1cc2cc[nH]c(=O)c2cc1Cl)C1CCN(Cc2ccncc2)CC1
12,< 1 µM,O=C(Nc1cc2cc[nH]c(=O)c2cc1Cl)c1cccc([N+](=O)[O-])c1Cl
13,< 1 µM,O=C(Nc1c(Cl)cc2c(=O)[nH]ccc2c1F)[C@H]1CNC[C@@H]1c1ccccc1
14,< 1 µM,CN(CC(=O)Nc1ccc2c(=O)[nH]cnc2c1)C1CCCCC1
15,< 1 µM,N[C@H]1C[C@H](C(=O)Nc2cc3cc[nH]c(=O)c3cc2Cl)C1
16,< 1 µM,CS(=O)(=O)c1ccc(C(=O)Nc2cc3cc[nH]c(=O)c3cc2Cl)cc1
17,< 1 µM,CCOC(=O)CC(=O)Nc1cc2cc[nH]c(=O)c2cc1Cl
18,< 1 µM,C[C@](O)(C(=O)Nc1cc2nc[nH]c(=O)c2cc1Cl)c1ccc(Cl)cc1
19,< 1 µM,O=C(Nc1cc2cc[nH]c(=O)c2cc1Cl)c1cccnc1Sc1ccccc1
20,< 1 µM,O=C(Nc1ccc2c(=O)[nH]cnc2c1)C1CCCN1 (stereo unspecified)
21,< 1 µM,N[C@H](Cc1ccc2ccccc2c1)C(=O)Nc1cc2cc[nH]c(=O)c2cc1Cl
22,< 1 µM,NC1(C(=O)Nc2ccc3c(=O)[nH]ccc3c2)CCCCC1
23,< 1 µM,O=C(CNCc1ccccn1)Nc1cc2cc[nH]c(=O)c2cc1Cl
24,< 1 µM,C[C@H]1CNCC[C@@H]1C(=O)Nc1cc2cc[nH]c(=O)c2cc1Cl

row,SMILES,IC50
1,O=C(Nc1cc2cc[nH]c(=O)c2cc1Cl)[C@H]1[C@@H]2CNC[C@@H]21,< 1 µM
2,O=C(Nc1cc2cc[nH]c(=O)c2cc1Cl)[C@H]1CNC[C@@H]1c1ccc(F)cc1,< 1 µM
3,O=C(Nc1cc2cc[nH]c(=O)c2cc1Cl)C1(c2ccc(Cl)cc2)CCNCC1,< 1 µM
4,O=C(Nc1cc2cc[nH]c(=O)c2cc1Cl)[C@@H]1[C@@H]2CNC[C@@H]21,< 1 µM
5,O=C(Nc1ccc2c(=O)[nH]ccc2c1)C1CNCC1c1ccc(F)cc1 (stereo unspecified),< 1 µM
